Where “and” joins values, the source holds several entries; their conditions need not be identical. Identical values can stand only once. Like-named read-outs stand apart in the source and are kept apart here. Starred links: 1 amine or outer side, 2 acyl side, 3 side chain; linkers in the order of their positions; H or OH if unused. Positions of bridges follow the written chain, without caps; N, C: chain ends. Non-standard residues stand in square brackets, D forms with d. Residues, ends and D or L forms follow the SMILES beside them. *: point of attachment. X1 = CC[C@H](C)[C@@H](N[*:1])[C@@H](O)CC(=O)O[C@H](C(=O)[C@H](C)C(=O)[*:2])C(C)C; NMeY = CN[C@@H](Cc1ccc(O)cc1)C(=O)O; dNMeL = CN[C@H](CC(C)C)C(=O)O; Pyruvoyl = CC(=O)C(=O)*
What was measured:
[1] = Plasma protein binding by equilibrium dialysis, human plasma; assay type: in vitro ADME; settings: male, human; for recovery at 100 ng/mL / fraction unbound at 5 h, 100 ng/mL: nominal 100 ng/mL; for recovery at 500 ng/mL / fraction unbound at 5 h, 500 ng/mL: nominal 500 ng/mL
Method: (§1) The binding of plitidepsin to plasma proteins was determined in vitro at three concentrations (100, 250 and 500 ng/ml) in male rat, dog and human plasma ([53]).
(§2) Rat (CD), beagle dog, and human blood was collected at Aptuit Srl from at least three male donors, and plasma prepared by centrifuging blood at 2,000g, 4°C for 10 min. Human plasma was obtained from healthy and fasted male volunteers. Na-heparin was used as the anti-coagulant for all species. All plasma was stored at approximately −20°C and thawed only once, on the day of the experiment.
(§3) Plasma protein binding was assessed using Rapid Equilibrium Dialysis plates pre-loaded with equilibrium dialysis membrane inserts (MWCO ∼8 kD).
(§4) Separation of free compound from protein-bound material was achieved by dialysis of the sample through the membrane under appropriate shaking at 37°C. The suitability of equilibrium dialysis as a method for protein binding determination of plitidepsin was assessed.
(§5) Before experimentation, the time required to reach equilibrium was determined in male rat and human plasma at one concentration (250 ng/ml) and six selected time points (2, 3, 4, 5, 6, and 7 h) at 37°C.
(§6) Plitidepsin stability was assessed in plasma (all species) and PBS at two concentrations (100 and 500 ng/ml for plasma; 0.5 and 50 ng/ml for PBS) by comparing plitidepsin concentration in spiked and preincubated plasma before and after incubation at 37°C for 5 h as determined previously.

[2] = tested on: plasma proteins; experiment: as above; assay type: in vitro ADME; settings: for % Bound / % Recovery / % Unbound: single replicates
Method: as §1, §2, §3, §4, §5, §6

[3] = tested on: COVID-19; experiment: APLICOV-PC: mortality, ventilation, ICU admission and oxygen therapy; assay type: in vivo, human
Method: Secondary outcomes included change from baseline of viral load, as evaluated by quantitative PCR via central laboratory on nasopharyngeal exudate or sampled from the lower respiratory tract within 48 h before first administration of plitidepsin and on days 4, 7, 15, and 31, and the percentage of patients requiring oxygen therapy, noninvasive mechanical ventilation, invasive mechanical ventilation and/or intensive care unit admission, and the percentage of patients with a fatal outcome on days 7, 15, and 31.
Analysis for preliminary evidence of efficacy was performed on all patients who had efficacy assessments at baseline and at least one subsequent assessment during treatment.
In regards with subgroup analyses, safety and efficacy outcomes also were assessed by age-group (<65 versus ≥65 yr) and efficacy outcomes were assessed by disease severity at baseline. Safety outcomes were also assessed before and after the implementation of the protocol amendment.

[4] = plasma, single replicates, read-out: % Bound (converted)
[5] = plasma, single replicates, read-out: % Unbound
[6] = Day 1 to Day 7, 1.5 mg (N = 14)
[7] = Day 1 to Day 7, 2.0 mg (N = 15)
[8] = Day 1 to Day 7, 2.5 mg (N = 15)
[9] = Day 1 to Day 31, 1.5 mg (N = 14)
[10] = Day 1 to Day 31, 2.0 mg (N = 15)
[11] = Day 1 to Day 31, 2.5 mg (N = 15)
[12] = Day 1 to Day 31, Total (N = 44)
[13] = Day 8 to Day 15, 1.5 mg (N = 14)
[14] = Day 8 to Day 15, 2.0 mg (N = 15)
[15] = Day 8 to Day 15, 2.5 mg (N = 15)
[16] = Day 8 to Day 15, Total (N = 44)

CC[C@H](C)[C@H]1NC(=O)[C@@H](NC(=O)[C@@H](CC(C)C)N(C)C(=O)[C@@H]2CCCN2C(=O)C(C)=O)[C@@H](C)OC(=O)[C@H](Cc2ccc(OC)cc2)N(C)C(=O)[C@@H]2CCCN2C(=O)[C@H](CC(C)C)NC(=O)[C@@H](C)C(=O)[C@H](C(C)C)OC(=O)C[C@@H]1O [Plitidepsin] (Pyruvoyl-P[dNMeL]T[X1]LP[NMeY](Me); ester 3-C)
fraction unbound ([1]; independent of drug concentration): 0.02 | recovery at 100 ng/mL ([1]; plasma, Mean ± SD): 84.3 ± 6.4% | fraction unbound at 5 h, 100 ng/mL ([1]; plasma, Mean ± SD, read-out: % Unbound): 0.017 ± 0.002 | recovery at 100 ng/mL ([1]; plasma, single replicates): 90.4% | fraction unbound at 5 h, 100 ng/mL [1, 4]: 0.014 | fraction unbound at 5 h, 100 ng/mL [1, 5]: 0.014 | recovery at 250 ng/mL ([1]; plasma, nominal 250 ng/mL, Mean ± SD): 77 ± 17.6% | fraction unbound at 5 h, 250 ng/mL ([1]; plasma, nominal 250 ng/mL, Mean ± SD, read-out: % Bound (converted)): 0.022 | fraction unbound at 5 h, 250 ng/mL ([1]; plasma, nominal 250 ng/mL, Mean ± SD, read-out: % Unbound): 0.022 ± 0.008 | fraction unbound at 5 h, 250 ng/mL ([1]; plasma, nominal 250 ng/mL, single replicates, read-out: % Bound (converted)): 0.03 | fraction unbound at 5 h, 250 ng/mL ([1]; plasma, nominal 250 ng/mL, single replicates, read-out: % Unbound): 0.03 | recovery at 500 ng/mL ([1]; plasma, mean, n=2): 80.4% | fraction unbound at 5 h, 500 ng/mL ([1]; plasma, mean, n=2, read-out: % Bound (converted)): 0.019 | fraction unbound at 5 h, 500 ng/mL ([1]; plasma, mean, n=2, read-out: % Unbound): 0.019 | recovery at 500 ng/mL ([1]; plasma, single replicates): 82% | fraction unbound at 5 h, 500 ng/mL [1, 4]: 0.019 | fraction unbound at 5 h, 500 ng/mL [1, 5]: 0.019 | fraction unbound at 100 ng/mL ([2]; male, human, plasma, nominal 100 ng/mL, Mean ± SD, read-out: % Bound (converted)): 0.017 | % Bound ([2]; nominal 100 ng/mL): 98.3% and 98.2% | % Recovery ([2]; nominal 100 ng/mL): 84.7% and 77.7% | % Unbound ([2]; nominal 100 ng/mL): 1.7% and 1.8% | % Bound ([2]; nominal 250 ng/mL): 98.5% and 98% | % Recovery ([2]; nominal 250 ng/mL): 56.7% and 87.3% and 87% | % Unbound ([2]; nominal 250 ng/mL): 1.5% and 2% | % Bound ([2]; nominal 500 ng/mL): 98% | % Recovery ([2]; nominal 500 ng/mL): 78.8% | % Unbound ([2]; nominal 500 ng/mL): 2% | Mortality from Day 1 to Day 31 ([3]; 1.5 mg (N = 14)): 1 (7.1) | Mortality from Day 1 to Day 31 ([3]; 2.5 mg (N = 15)): 1 (6.7) | Patients requiring invasive mechanical ventilation and/or intensive care unit admission [3, 6]: 2 (14.3) | Patients requiring noninvasive mechanical ventilation [3, 6]: 4 (28.6) | Patients requiring invasive mechanical ventilation and/or intensive care unit admission [3, 7]: 1 (6.7) | Patients requiring noninvasive mechanical ventilation [3, 7]: 0 | Patients requiring invasive mechanical ventilation and/or intensive care unit admission [3, 8]: 2 (13.3) | Patients requiring noninvasive mechanical ventilation [3, 8]: 1 (6.7) | Patients requiring invasive mechanical ventilation and/or intensive care unit admission ([3]; Day 1 to Day 7, Total (N = 44)): 5 (11.4) | Patients requiring noninvasive mechanical ventilation ([3]; Day 1 to Day 7, Total (N = 44)): 5 (11.4) | Patients requiring invasive mechanical ventilation and/or intensive care unit admission [3, 9]: 2 (14.3) | Patients requiring noninvasive mechanical ventilation [3, 9]: 5 (35.7) | Patients requiring oxygen therapy at [3, 9]: 12 (85.7) | Patients requiring invasive mechanical ventilation and/or intensive care unit admission [3, 10]: 1 (6.7) | Patients requiring noninvasive mechanical ventilation [3, 10]: 1 (6.7) | Patients requiring oxygen therapy at [3, 10]: 12 (80.0) | Patients requiring invasive mechanical ventilation and/or intensive care unit admission [3, 11]: 3 (20.0) | Patients requiring noninvasive mechanical ventilation [3, 11]: 2 (13.3) | Patients requiring oxygen therapy at [3, 11]: 11 (73.3) | Patients requiring invasive mechanical ventilation and/or intensive care unit admission [3, 12]: 6 (13.6) | Patients requiring noninvasive mechanical ventilation [3, 12]: 8 (18.2) | Patients requiring oxygen therapy at [3, 12]: 35 (79.5) | Patients requiring oxygen therapy at ([3]; Day 7, 1.5 mg (N=14)): 12 (85.7) | Patients requiring oxygen therapy at ([3]; Day 7, 2.0 mg (N = 15)): 12 (80.0) | Patients requiring oxygen therapy at ([3]; Day 7, 2.5 mg (N=15)): 11 (73.3) | Patients requiring oxygen therapy at ([3]; Day 7, Total (N=44)): 35 (79.5) | Patients requiring invasive mechanical ventilation and/or intensive care unit admission [3, 13]: 1 (7.1) | Patients requiring noninvasive mechanical ventilation [3, 13]: 3 (21.4) | Patients requiring invasive mechanical ventilation and/or intensive care unit admission [3, 14]: 1 (6.7) | Patients requiring noninvasive mechanical ventilation [3, 14]: 0 | Patients requiring invasive mechanical ventilation and/or intensive care unit admission [3, 15]: 1 (6.7) | Patients requiring noninvasive mechanical ventilation [3, 15]: 2 (13.3) | Patients requiring invasive mechanical ventilation and/or intensive care unit admission [3, 16]: 3 (6.8) | Patients requiring noninvasive mechanical ventilation [3, 16]: 5 (11.4)

Source: publication PMC8761492 (Life Science Alliance, 2022)
